Marks after values point to notes of the source that are not given here.
Legend:
Assay type in all cases: cell-based, human
MCF-7 cells [1] = test: DT resistant colony count of MCF-7 exposed to SCR7 and/or RS-1 during SpCas9-mediated DPH1 editing
Description: (§1) To evaluate and quantify the influence of DNA repair modulators on efficiency and specificity of gene editing, CRISPR/SpCAS9 and DPH1 targeting 20 mer gRNA was combined with compounds that modulate DNA repair mechanisms. The inhibitor Scr7 was applied either 4 hrs before transfection or 18 hrs after transfection of the gene editing modules until […] after transfection to inhibit DNA ligase IV.
SCR7 (1 μM final conc.) or RS-1 (8 μM final conc.) or SCR7+RS-1 (1 μM+8 μM final conc.) were added to MCF7 cells 4 hrs before transfection of the gene editing modules in the ‘early exposure’ setting. For ‘late exposure’ SCR7 (8 µM final conc.) or RS-1 (1 μM final conc.) were added to MCF7 cells 18 hrs after transfection. In both settings, cells were exposed to the modulators until 96 hr after transfection, i.e. ‘early exposure’ consisted of a treatment for a total of 100 hrs, ‘late exposure’ for a total of 78 hrs.
(§2) The system upon which to determine the effects of DNA repair modulators consisted of the CRISPR/SpCas9 modules with DPH1 20 mer gRNA, transfected into MCF7 cells and subjected to subsequent DT and PM selection as described in the previous Examples. Frequencies of DTr, PMr, and double-resistant colonies were recorded to reflect gene inactivation and cassette integration events.

MCF-7 cells [2] = test: PM resistant colony count of MCF-7 exposed to SCR7 and/or RS-1 during SpCas9-mediated DPH1 editing; settings: for mean PMr colonies #seeded cells: 80,000: SpCas9 Dph1 gRNA (20 mer)
Description: as §1
SCR7 (1 μM final conc.) or RS-1 (8 μM final conc.) or SCR7+RS-1 (1 μM+8 μM final conc.) were added to MCF7 cells 4 hrs before transfection of the gene editing modules in the ‘early exposure’ setting. […]
as §2

MCF7 = test: Viability (Promega CTG) assay; settings: 1 μM Scr7, 8 μM RS-1, 1 μM+8 μM combined
Description: The RAD51-stimulatory compound 1 (RS-1) was applied to modulate homologous recombination (HR) during gene editing. RS-1 (Sigma Aldrich) was dissolved in DMSO to generate a stock solution of 10 mg/ml, which was diluted in RPMI medium just before application to cells.
The DNA ligase IV inhibitor SCR7 was applied to modulate non-homologous end joining (NHEJ) during gene editing. SCR7 (Sigma) was dissolved in DMSO to generate a stock solution of 10 mg/ml, which was diluted in RPMI medium just before application to cells.

MCF-7 cells [3] = test: DT resistant colony count of MCF-7 exposed to SCR7 and/or RS-1 during SpCas9-mediated DPH1 editing; settings: SpCas9 Dph1 gRNA (20 mer); compound added 18 hrs after transfection; RS-1 8 μM, SCR7 1 μM
[4] = compound added 4 hr before transfection
[5] = compound added 4 hrs before transfection
[6] = compound added 18 hr after transfection

Q: What does the source list for SCR7?
A: mean DTr colonies #seeded cells: 40,000 (MCF-7 cells [1]; SpCas9 Dph1 gRNA (20 mer), compound added 4 hrs before transfection, RS-1 8 μM, SCR7 1 μM): 205.3; % DT resistant colonies relative to untreated control (MCF-7 cells [1]; [4]): 102%; gRNA specific DT-r colonies (gRNA-scRNA) (MCF-7 cells [1]; [5]): 205.3; % DT resistant colonies relative to untreated control (MCF-7 cells [1]; [6]): 95%*; Mean DT resistant colonies (4 × 40.000 seeded cells) (MCF-7 cells [1]; editing entity SpCas9-scRNA, compound added 4 hrs before transfection): 0; mean PMr colonies #seeded cells: 80,000 (MCF-7 cells [2]; compound added 4 hrs before transfection, RS-1 8 μM, SCR7 1 μM): 13.3; mean PMr colonies #seeded cells: 80,000 (MCF-7 cells [2]; compound added 18 hrs after transfection, RS-1 8 μM, SCR7 1 μM): 25; % PMr relative to DTr colonies (MCF-7 cells [2]; SpCas9 Dph1 gRNA, compound added 18 hrs after transfection, RS-1 8 μM, SCR7 1 μM): 5.1%; increase of the number of PMr colonies compared to untreated control (MCF-7 cells [2]; compound 4 hrs before until 72 hr after transfection): approx. 2 fold; % PM resistant colonies relative to untreated control (MCF-7 cells [2]; [4]): 156%*; gRNA specific PM-r colonies (gRNA-scRNA) (MCF-7 cells [2]; [5]): 9.5; % PM resistant colonies relative to untreated control (MCF-7 cells [2]; [6]): 125%; effect on the growth or viability of MCF7 cells at the applied dose (MCF7): does not inflict growth inhibitory or toxic effects; effect on the growth or viability of MCF7 cells at the applied dose (MCF7; listed as Scr7): no effect on the growth or viability; mean DTr colonies #seeded cells: 40,000 (MCF-7 cells [3]): 488.8
